Results as given in patent US20230002359A1, “PESTICIDALLY ACTIVE FUSED BICYCLIC HETEROAROMATIC COMPOUNDS” (priority 2019, published 2023).

Experiments:
Assay type in all cases: in vivo
[1] = system: Diabrotica Balteata (Corn Root Worm); experiment: Example B1: Diabrotica balteata (corn root worm), maize sprouts sprayed, L2 larvae; details: 96 h, application rate of 200 ppm, 4 days after infestation, L2 larvae, read-out: control in at least one of the two categories (mortality or growth inhibition)
In short: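 Larvae at L2 stage, 6 to 10 per well, feed on dried, spray-treated maize sprouts set on agar. Evaluation after 4 days compares mortality and growth inhibition with untreated samples.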

[2] = system: Chilo suppressalis (Striped Rice Stemborer); experiment: Example B3: Chilo suppressalis (striped rice stemborer), artificial diet, L2 larvae; details: 144 h, application rate of 200 ppm, 6 days after infestation, L2 larvae, read-out: control in at least one of the three categories (mortality, anti-feedant effect, or growth inhibition)
In short: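 Diet-incorporation surface assay: aqueous dilutions of 10'000 ppm DMSO stock applied to artificial diet, dried; 6-8 L2 larvae/well; read day 6 post-infestation for mortality, antifeedant effect, growth inhibition vs untreated. Active if any category above untreated.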

[3] = system: Plutella xylostella (Diamond Back Moth); experiment: Example B4: Plutella xylostella (diamond back moth), artificial diet, eggs, 24-well; details: 192 h, application rate of 200 ppm, 8 days after infestation, eggs, read-out: control in at least one of the two categories (mortality or growth inhibition)
Procedure: 24-well microtiter plates with artificial diet were treated with aqueous test solutions prepared from 10′000 ppm DMSO stock solutions by pipetting. After drying, Plutella eggs were pipetted through a plastic stencil onto a gel blotting paper and the plate was closed with it. The samples were assessed for mortality and growth inhibition in comparison to untreated samples 8 days after infestation.

[4] = system: Spodoptera littoralis (Egyptian Cotton Leaf Worm); experiment: Example B7: Spodoptera littoralis (Egyptian cotton leaf worm), cotton leaf discs sprayed, L1 larvae; details: foliar, 72 h, application rate of 200 ppm, 3 days after infestation, L1 larvae, read-out: control in at least one of the three categories (mortality, anti-feedant effect, or growth inhibition)
In short: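 Cotton leaf discs on agar were sprayed with aqueous test solutions made from 10′000 ppm DMSO stocks, dried, then infested with five L1 larvae. Mortality, anti-feeding effect and growth inhibition were scored against untreated discs 3 days after infestation; control means any category exceeds untreated.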

CC(Nc1ncnc2c(C(F)(F)F)cc(Cl)cc12)c1ncnn1-c1ccc(OC(F)F)cn1 (centres unmarked) [P.235, 6-chloro-N-[1-[2-[5-(difluoromethoxy)-2-pyridyl]-1,2,4-triazol-3-yl]ethyl]-8-(trifluoromethyl)quinazolin-4-amine]
≥ 80%: percent control (mortality or growth inhibition) at 200 ppm [1] | percent control (mortality, anti-feedant effect or growth inhibition) at 200 ppm [2] | percent control (mortality or growth inhibition) at 200 ppm [3] | percent control (mortality, anti-feedant effect or growth inhibition) at 200 ppm [4]

CC(c1ncnn1-c1ccc(Br)cn1)N(C)c1ncnc2c(C(F)(F)F)cc(Br)cc12 (centres unmarked) [P.237, 6-bromo-N-[1-[2-(5-bromo-2-pyridyl)-1,2,4-triazol-3-yl]ethyl]-N-methyl-8-(trifluoromethyl)quinazolin-4-amine]
≥ 80%: percent control (mortality or growth inhibition) at 200 ppm [1] | percent control (mortality, anti-feedant effect or growth inhibition) at 200 ppm [2] | percent control (mortality or growth inhibition) at 200 ppm [3] | percent control (mortality, anti-feedant effect or growth inhibition) at 200 ppm [4]

CC(c1ncnn1-c1ccc(Br)cn1)N(C)c1ncnc2c(C(F)(F)F)cc(Cl)cc12 (centres unmarked) [P.238, N-[1-[2-(5-bromo-2-pyridyl)-1,2,4-triazol-3-yl]ethyl]-6-chloro-N-methyl-8-(trifluoromethyl)quinazolin-4-amine]
≥ 80%: percent control (mortality or growth inhibition) at 200 ppm [1] | percent control (mortality, anti-feedant effect or growth inhibition) at 200 ppm [2] | percent control (mortality or growth inhibition) at 200 ppm [3] | percent control (mortality, anti-feedant effect or growth inhibition) at 200 ppm [4]

CC(c1ncnn1-c1ccc(Br)cn1)N(C)c1ncnc2c(Br)cc(C(F)(F)F)cc12 (centres unmarked) [P.239, 8-bromo-N-[1-[2-(5-bromo-2-pyridyl)-1,2,4-triazol-3-yl]ethyl]-N-methyl-6-(trifluoromethyl)quinazolin-4-amine]
≥ 80%: percent control (mortality or growth inhibition) at 200 ppm [1] | percent control (mortality, anti-feedant effect or growth inhibition) at 200 ppm [2] | percent control (mortality or growth inhibition) at 200 ppm [3] | percent control (mortality, anti-feedant effect or growth inhibition) at 200 ppm [4]

CC(c1ncnn1-c1ccc(Br)cn1)N(C)c1ncnc2c(Cl)cc(C(F)(F)F)cc12 (centres unmarked) [P.240, N-[1-[2-(5-bromo-2-pyridyl)-1,2,4-triazol-3-yl]ethyl]-8-chloro-N-methyl-6-(trifluoromethyl)quinazolin-4-amine]
≥ 80%: percent control (mortality or growth inhibition) at 200 ppm [1] | percent control (mortality, anti-feedant effect or growth inhibition) at 200 ppm [2] | percent control (mortality or growth inhibition) at 200 ppm [3] | percent control (mortality, anti-feedant effect or growth inhibition) at 200 ppm [4]

CC(c1ncnn1-c1ccc(Br)cn1)N(C)c1ncnc2c(C(F)(F)F)cc(C(F)(F)F)cc12 (centres unmarked) [P.241, N-[1-[2-(5-bromo-2-pyridyl)-1,2,4-triazol-3-yl]ethyl]-N-methyl-6,8-bis(trifluoromethyl)quina-zolin-4-amine]
≥ 80%: percent control (mortality or growth inhibition) at 200 ppm [1] | percent control (mortality, anti-feedant effect or growth inhibition) at 200 ppm [2] | percent control (mortality or growth inhibition) at 200 ppm [3] | percent control (mortality, anti-feedant effect or growth inhibition) at 200 ppm [4]

CC(Nc1ncnc2c(OC(F)F)cc(Br)cc12)c1ncnn1-c1ccc(C#N)cn1 (centres unmarked) [P.244, 6-[5-[1-[[6-bromo-8-(difluoromethoxy)quinazo-lin-4-yl]amino]ethyl]-1,2,4-triazol-1-yl]pyridine-3-carbonitrile]
≥ 80%: percent control (mortality or growth inhibition) at 200 ppm [1] | percent control (mortality, anti-feedant effect or growth inhibition) at 200 ppm [2] | percent control (mortality or growth inhibition) at 200 ppm [3] | percent control (mortality, anti-feedant effect or growth inhibition) at 200 ppm [4]

CC(Nc1ncnc2c(OC(F)(F)F)cc(Br)cc12)c1ncnn1-c1ccc(C#N)cn1 (centres unmarked) [P.247, 6-[5-[1-[[6-bromo-8-(trifluoromethoxy)quinazo-lin-4-yl]amino]ethyl]-1,2,4-triazol-1-yl]pyridine-3-carbonitrile]
≥ 80%: percent control (mortality or growth inhibition) at 200 ppm [1] | percent control (mortality, anti-feedant effect or growth inhibition) at 200 ppm [2] | percent control (mortality or growth inhibition) at 200 ppm [3] | percent control (mortality, anti-feedant effect or growth inhibition) at 200 ppm [4]

CC(c1nccnc1-c1ncccn1)N(C)c1ccnc2c(C(F)(F)F)cc(C(F)(F)F)cc12 (centres unmarked) [P.249, N-methyl-N-[1-(3-pyrimidin-2-ylpyrazin-2-yl)ethyl]-6,8-bis(trifluoromethyl)quino-lin-4-amine]
≥ 80%: percent control (mortality or growth inhibition) at 200 ppm [1] | percent control (mortality, anti-feedant effect or growth inhibition) at 200 ppm [2] | percent control (mortality or growth inhibition) at 200 ppm [3] | percent control (mortality, anti-feedant effect or growth inhibition) at 200 ppm [4]

CC(c1ncnn1-c1ncccn1)N(C)c1nccc2c(C(F)(F)F)cc(C(F)(F)F)cc12 (centres unmarked) [P.250, N-methyl-N-[1-(2-pyrimidin-2-yl-1,2,4-triazol-3-yl)ethyl]-5,7-bis(trifluoromethyl)isoquino-lin-1-amine]
≥ 80%: percent control (mortality or growth inhibition) at 200 ppm [1] | percent control (mortality, anti-feedant effect or growth inhibition) at 200 ppm [2] | percent control (mortality or growth inhibition) at 200 ppm [3] | percent control (mortality, anti-feedant effect or growth inhibition) at 200 ppm [4]

C[C@H](Nc1ccnc2c(C(F)(F)F)cc(C(F)(F)F)cc12)c1ncnn1-c1ccc(C#N)cn1 [P.251, 6-[5-[(1S)-1-[[6,8-bis(trifluoromethyl)-4-quinolyl]amino]ethyl]-1,2,4-triazol-1-yl]pyridine-3-carbonitrile]
≥ 80%: percent control (mortality or growth inhibition) at 200 ppm [1] | percent control (mortality, anti-feedant effect or growth inhibition) at 200 ppm [2] | percent control (mortality or growth inhibition) at 200 ppm [3] | percent control (mortality, anti-feedant effect or growth inhibition) at 200 ppm [4]

C[C@H](Nc1ccnc2c(C(F)(F)F)cc(Br)cc12)c1ncnn1-c1ccc(C#N)cn1 [P.252, 6-[5-[(1S)-1-[[6-bromo-8-(trifluoromethyl)-4-quinolyl]amino]ethyl]-1,2,4-triazol-1-yl]pyridine-3-carbonitrile]
≥ 80%: percent control (mortality or growth inhibition) at 200 ppm [1] | percent control (mortality, anti-feedant effect or growth inhibition) at 200 ppm [2] | percent control (mortality or growth inhibition) at 200 ppm [3] | percent control (mortality, anti-feedant effect or growth inhibition) at 200 ppm [4]

C[C@H](Nc1ccnc2c(C(F)(F)F)cc(Br)cc12)c1ncnn1-c1ncccn1 [P.253, 6-bromo-N-[(1S)-1-(2-pyrimidin-2-yl-1,2,4-triazol-3-yl)ethyl]-8-(trifluoromethyl)quinolin-4-amine]
≥ 80%: percent control (mortality or growth inhibition) at 200 ppm [1] | percent control (mortality, anti-feedant effect or growth inhibition) at 200 ppm [2] | percent control (mortality or growth inhibition) at 200 ppm [3] | percent control (mortality, anti-feedant effect or growth inhibition) at 200 ppm [4]

C[C@@H](c1ncnn1-c1ncccn1)N(C)c1ccnc2c(Br)cc(C(F)(F)F)cc12 [P.255, 8-bromo-N-methyl-N-[(1S)-1-(2-pyrimidn-2-yl-1,2,4-triazol-3-yl)ethyl]-6-(trifluoromethyl)quinolin-4-amine]
≥ 80%: percent control (mortality or growth inhibition) at 200 ppm [1] | percent control (mortality, anti-feedant effect or growth inhibition) at 200 ppm [2] | percent control (mortality or growth inhibition) at 200 ppm [3] | percent control (mortality, anti-feedant effect or growth inhibition) at 200 ppm [4]

CC(c1ncnn1-c1ccc(C#N)cn1)N(C)c1ncnc2c(Br)cc(Br)cc12 (centres unmarked) [P.257, 6-[5-[1-[(6,8-dibromoquinazolin-4-yl)-methyl-amino]ethyl]-1,2,4-triazol-1-yl]pyridin-3-carbonitrile]
≥ 80%: percent control (mortality or growth inhibition) at 200 ppm [1] | percent control (mortality, anti-feedant effect or growth inhibition) at 200 ppm [2] | percent control (mortality or growth inhibition) at 200 ppm [3] | percent control (mortality, anti-feedant effect or growth inhibition) at 200 ppm [4]

CC(c1nccnc1-c1ccc(OC(F)F)cn1)N(C)c1ncnc2c(C(F)(F)F)cc(Br)cc12 (centres unmarked) [P.273, 6-bromo-N-[1-[3-[5-(difluoromethoxy)-2-pyridyl]pyrazin-2-yl]ethyl]-N-methyl-8-(trifluoromethyl)quinazolin-4-amine]
≥ 80%: percent control (mortality or growth inhibition) at 200 ppm [1] | percent control (mortality, anti-feedant effect or growth inhibition) at 200 ppm [2] | percent control (mortality or growth inhibition) at 200 ppm [3] | percent control (mortality, anti-feedant effect or growth inhibition) at 200 ppm [4]

CC(Nc1ncnc2c(Cl)cc(C(F)(F)F)cc12)c1ncnn1-c1ccc(F)cn1 (centres unmarked) [P.274, 8-chloro-N-[1-[2-(5-fluroo-2-pyridyl)-1,2,4-triazol-3-yl]ethyl]-6-(trifluoromethyl)quinazolin-4-amine]
≥ 80%: percent control (mortality or growth inhibition) at 200 ppm [1] | percent control (mortality, anti-feedant effect or growth inhibition) at 200 ppm [2] | percent control (mortality or growth inhibition) at 200 ppm [3] | percent control (mortality, anti-feedant effect or growth inhibition) at 200 ppm [4]
